# Data: article PMC2880701 (Journal of the American Chemical Society, 2009)
# Experiments:
# [1] = biological target: HDAC1 (Homo sapiens, UniProt Q13547); experiment: homogeneous trypsin-coupled fluorigenic HDAC assay, HDAC1; conditions: isostere versus corresponding depsipeptide natural product (active thiol forms)
# [2] = biological target: HDAC2 (Homo sapiens, UniProt Q92769); format: biochemical; conditions: read-out: HDAC inhibitory activity IC50, HDAC2
# HDAC2, sequence (Q92769 whole entry): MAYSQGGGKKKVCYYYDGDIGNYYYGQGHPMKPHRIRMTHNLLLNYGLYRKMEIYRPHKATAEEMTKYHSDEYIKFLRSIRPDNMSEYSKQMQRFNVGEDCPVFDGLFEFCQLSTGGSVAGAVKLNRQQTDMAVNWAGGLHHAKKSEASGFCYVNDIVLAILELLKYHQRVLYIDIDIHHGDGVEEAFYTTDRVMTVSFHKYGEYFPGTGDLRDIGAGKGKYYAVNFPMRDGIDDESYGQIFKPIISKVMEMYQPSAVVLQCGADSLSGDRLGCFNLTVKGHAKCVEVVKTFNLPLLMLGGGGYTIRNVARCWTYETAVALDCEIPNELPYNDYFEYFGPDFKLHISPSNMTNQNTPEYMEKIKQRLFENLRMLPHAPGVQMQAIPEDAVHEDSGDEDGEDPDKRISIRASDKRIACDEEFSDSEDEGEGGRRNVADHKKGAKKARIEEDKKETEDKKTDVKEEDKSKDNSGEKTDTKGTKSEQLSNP
# HDAC1, sequence (Q13547 whole entry): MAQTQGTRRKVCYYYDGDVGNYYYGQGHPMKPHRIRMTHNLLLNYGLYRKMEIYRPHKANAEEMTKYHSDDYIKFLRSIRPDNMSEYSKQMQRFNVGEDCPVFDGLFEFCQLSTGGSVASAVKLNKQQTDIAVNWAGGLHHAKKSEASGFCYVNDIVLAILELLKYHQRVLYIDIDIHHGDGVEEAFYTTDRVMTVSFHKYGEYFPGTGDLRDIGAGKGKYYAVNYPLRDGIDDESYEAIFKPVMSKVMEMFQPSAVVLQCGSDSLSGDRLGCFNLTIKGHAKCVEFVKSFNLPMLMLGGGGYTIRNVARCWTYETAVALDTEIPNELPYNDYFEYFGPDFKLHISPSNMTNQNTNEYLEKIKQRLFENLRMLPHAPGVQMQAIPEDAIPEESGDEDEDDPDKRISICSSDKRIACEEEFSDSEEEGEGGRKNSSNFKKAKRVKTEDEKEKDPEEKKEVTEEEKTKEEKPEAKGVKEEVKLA
SMILES,fold less potent against HDAC1 than the parent natural product [1] [fold],IC50 [2] [nM]
CC(C)[C@@H]1NC(=O)[C@]2(C)CSC(=N2)c2csc(n2)CNC(=O)C[C@@H](/C=C/CCS)NC1=O [Largazole Isostere Thiol (31)],9,
CCCCCCCC(=O)SCC/C=C/[C@@H]1CC(=O)NCc2nc(cs2)C2=N[C@@](C)(CS2)C(=O)N[C@@H](C(C)C)C(=O)N1 [Largazole Isostere (11)],,> 3000
